Experimental data from patent US11266643B2, “Triaryl compounds for treatment of PD-L1 diseases” (CHEMOCENTRYX, INC., priority 2019, dated 2022).

The molecules below were run against human PD-L1 (Homo sapiens (Human), UniProt Q9NZQ7) (assay: Enzyme-Linked Immunosorbent Assay (ELISA), PD-1/PD-L1 binding). Conditions: human PD-1/PD-L1 ELISA, plates coated with human PD-L1.
Procedure: 96 Well plates were coated with […] of human PD-L1 (obtained from R&D) in PBS overnight at 4° C. The wells were then blocked with 2% BSA in PBS (W/V) with 0.05% TWEEN-20 for 1 hour at 37° C. The plates were washed 3 times with PBS/0.05% TWEEN-20 and the compounds were serial diluted (1:5) in dilution medium and added to the ELISA plates. Human PD-1 […] 0.31 μg/mL (ACRO Biosystems) were added and incubated for 1 hour at 37° C. then washed 3 times with PBS/0.05% TWEEN-20. A second block was performed with 2% BSA in PBS (W/V)/0.05% TWEEN-20 for 10 min at 37° C. and the plates were washed 3 times with PBS/0.05% TWEEN-20. Streptavidin-HRP was added for 1 hour at 37° C. then the plates were washed 3 times with PBS/0.05% TWEEN-20. TMB substrate was added and reacted for 20 min at 37° C. A stop solution (2 N aqueous H2SO4) was added. The absorbance was read at 450 nm using a micro-plate spectrophotometer.
Using the methods described in the Examples above, the compounds in Table 2 were prepared & tested for biological activity using the ELISA method described above.

Chain of human PD-L1 (Q9NZQ7 19-239): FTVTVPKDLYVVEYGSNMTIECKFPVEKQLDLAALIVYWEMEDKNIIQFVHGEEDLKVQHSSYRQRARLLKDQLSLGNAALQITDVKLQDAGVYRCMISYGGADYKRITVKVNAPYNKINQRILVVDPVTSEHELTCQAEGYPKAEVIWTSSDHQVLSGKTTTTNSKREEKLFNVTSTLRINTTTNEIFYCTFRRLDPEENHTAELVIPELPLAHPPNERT

Row | SMILES | IC50 [nM]
1 | COc1cc(-c2cccc(-c3cccc(NC(=O)c4c[nH]c(=O)n(C)c4=O)c3C)c2C)cc(F)c1CNCc1ncc[nH]1 [Example 1.119] | 10 to 1000
2 | COc1cc(-c2cccc(-c3cccc(NC(=O)c4c[nH]c(=O)n(C)c4=O)c3C)c2C)cc(F)c1CNCc1noc(=O)[nH]1 [Example 1.120] | 10 to 1000
3 | COc1cc(-c2cccc(-c3cccc(NC(=O)c4cn(C)c(=O)n(C)c4=O)c3C)c2C)cc(F)c1CNC1CC(=O)NC1=O (stereo not drawn) [Example 1.121] | 10 to 1000
4 | COc1cc(-c2cccc(-c3cccc(Nc4nccc5nccnc45)c3C)c2C)cc(F)c1CN[C@H]1CCNC1=O [Example 1.125] | 10 to 1000
5 | COc1cc(-c2cccc(-c3cccc(NC(=O)c4cn(C)c(=O)n(C)c4=O)c3C)c2C)cc(F)c1CN(C)[C@H]1CNC(=O)C1 [Example 1.126] | 10 to 1000
6 | COc1cc(-c2cccc(-c3cccc(Nc4nccc5nccnc45)c3C)c2C)cc(F)c1CN[C@@H]1CCNC1=O [Example 1.130] | 10 to 1000
7 | COc1cc(-c2cccc(-c3cccc(NC(=O)c4cncn(C)c4=O)c3C)c2C)cc(F)c1CN(C)C[C@H]1CCC(=O)N1 [Example 1.132] | 10 to 1000
8 | COc1cc(-c2cccc(-c3cccc(NC(=O)c4c[nH]c(=O)n(C)c4=O)c3C)c2C)cc(F)c1CN[C@H]1CCNC1=O [Example 1.135] | 10 to 1000
9 | COc1cc(-c2cccc(-c3cccc(NC(=O)c4c[nH]c(=O)n(C)c4=O)c3C)c2C)cc(F)c1CN[C@@H]1CCNC1=O [Example 1.138] | 10 to 1000
10 | COc1cc(-c2cccc(-c3cccc(NC(=O)c4cn(C)c(=O)n(C)c4=O)c3C)c2C)cc(F)c1CN(C)C[C@H]1CCC(=O)N1 [Example 1.152] | 10 to 1000
11 | COc1cc(-c2cccc(-c3cccc(NC(=O)c4cn(C)c(=O)n(C)c4=O)c3C)c2C)cc(F)c1CNC[C@H]1CCC(=O)N1 [Example 1.155] | < 10
12 | COc1cc(-c2cccc(-c3cccc(NC(=O)c4cccn(C)c4=O)c3C)c2C)cc(F)c1CNC[C@@H]1CCC(=O)N1C [Example 1.156] | < 10
13 | COc1cc(-c2cccc(-c3cccc(NC(=O)c4cccn(C)c4=O)c3C)c2C)cc(F)c1CNC[C@@H]1CCC(=O)N1 [Example 1.157] | < 10
14 | COc1cc(-c2cccc(-c3cccc(NC(=O)c4c[nH]c(=O)n(C)c4=O)c3C)c2C)cc(F)c1CNC[C@H]1CCC(=O)N1 [Example 1.158] | < 10
15 | COc1cc(-c2cccc(-c3cccc(Nc4nccc5nccnc45)c3C)c2C)cc(F)c1CNC[C@H]1CCC(=O)N1 [Example 1.159] | < 10
16 | COc1cc(-c2cccc(-c3cccc(NC(=O)c4cncn(C)c4=O)c3C)c2C)cc(F)c1CN[C@@H]1CCC[C@H]1O [Example 1.160] | < 10
17 | COc1cc(-c2cccc(-c3cccc(NC(=O)c4cncn(C)c4=O)c3C)c2C)cc(F)c1CN[C@H]1CCC[C@H]1O [Example 1.161] | < 10

Row | SMILES | IC50 [nM]
18 | COc1cc(-c2cccc(-c3cccc(NC(=O)c4cn(C)c(=O)n(C)c4=O)c3C)c2C)cc(F)c1CNC1CCOC1 (stereo not drawn) [Example 1.162] | < 10
19 | COc1cc(-c2cccc(-c3cccc(NC(=O)c4cccn(C)c4=O)c3C)c2C)cc(F)c1CN(C)CCO [Example 1.164] | < 10
20 | COc1cc(-c2cccc(-c3cccc(NC(=O)c4cccn(C)c4=O)c3C)c2C)cc(F)c1CN[C@@H]1CCC[C@@H]1O [Example 1.165] | < 10
21 | COc1cc(-c2cccc(-c3cccc(NC(=O)c4cncn(C)c4=O)c3C)c2C)cc(F)c1CN(C)CC(C)(C)O [Example 1.166] | 10 to 1000
22 | COc1cc(-c2cccc(-c3cccc(NC(=O)c4cccn(C)c4=O)c3C)c2C)cc(F)c1CN(C)C[C@@H]1CCC(=O)N1 [Example 1.167] | < 10
23 | COc1cc(-c2cccc(-c3cccc(NC(=O)c4cccn(C)c4=O)c3C)c2C)cc(F)c1CNC1CCOC1 (stereo not drawn) [Example 1.168] | < 10
24 | COc1cc(-c2cccc(-c3cccc(NC(=O)c4cccn(C)c4=O)c3C)c2C)cc(F)c1CNC1COC1 [Example 1.169] | 10 to 1000
25 | COc1cc(-c2cccc(-c3cccc(NC(=O)c4cccn(C)c4=O)c3C)c2C)cc(F)c1CNC(C)C [Example 1.170] | < 10
26 | COc1cc(-c2cccc(-c3cccc(NC(=O)c4cccn(C)c4=O)c3C)c2C)cc(F)c1CN[C@@H]1CNC(=O)C1 [Example 1.171] | < 10
27 | COc1cc(-c2cccc(-c3cccc(NC(=O)c4cncn(C)c4=O)c3C)c2C)cc(F)c1CN[C@H]1CCC[C@@H]1O [Example 1.172] | < 10
28 | COc1cc(-c2cccc(-c3cccc(Nc4nccc5c4NCCN5)c3C)c2C)cc(F)c1CN[C@@H]1CCC[C@@H]1O [Example 1.173] | 10 to 1000
29 | COc1cc(-c2cccc(-c3cccc(NC(=O)c4cn(C)c(=O)n(C)c4=O)c3C)c2C)cc(F)c1CN(C)C[C@@H]1CCC(=O)N1 [Example 1.175] | < 10
30 | COc1cc(-c2cccc(-c3cccc(NC(=O)c4cncn(C)c4=O)c3C)c2C)cc(F)c1CN(C)CCO [Example 1.176] | < 10
31 | COc1cc(-c2cccc(-c3cccc(NC(=O)c4cn(C)c(=O)n(C)c4=O)c3C)c2C)cc(F)c1CNC1COC1 [Example 1.177] | < 10
32 | COc1cc(-c2cccc(-c3cccc(NC(=O)c4cn(C)c(=O)n(C)c4=O)c3C)c2C)cc(F)c1CN[C@@H]1CCC[C@@H]1O [Example 1.178] | < 10
33 | COc1cc(-c2cccc(-c3cccc(NC(=O)c4cn(C)c(=O)n(C)c4=O)c3C)c2C)cc(F)c1CNCCO [Example 1.179] | < 10

Continued, values first:

Row | IC50 [nM] | SMILES
34 | < 10 | COc1cc(-c2cccc(-c3cccc(NC(=O)c4cn(C)c(=O)n(C)c4=O)c3C)c2C)cc(F)c1CNCCN1CCCC1=O [Example 1.118]
35 | < 10 | COc1cc(-c2cccc(-c3cccc(Nc4nccc5nccnc45)c3C)c2C)cc(F)c1CNC1CCOCC1 [Example 1.123]
36 | < 10 | COc1cc(-c2cccc(-c3cccc(NC(=O)c4cn(C)c(=O)n(C)c4=O)c3C)c2C)cc(F)c1CN[C@H]1CNC(=O)C1 [Example 1.127]
37 | < 10 | COc1cc(-c2cccc(-c3cccc(NC(=O)c4c[nH]c(=O)n(C)c4=O)c3C)c2C)cc(F)c1CNCCC(N)=O [Example 1.128]
38 | < 10 | COc1cc(-c2cccc(-c3cccc(NC(=O)c4cn(C)c(=O)n(C)c4=O)c3C)c2C)cc(F)c1CN[C@H]1CCC[C@@H]1O [Example 1.129]
39 | < 10 | COc1cc(-c2cccc(-c3cccc(NC(=O)c4c[nH]c(=O)n(C)c4=O)c3C)c2C)cc(F)c1CNCCN1CCCC1=O [Example 1.131]
40 | < 10 | COc1cc(-c2cccc(-c3cccc(NC(=O)c4cn(C)c(=O)n(C)c4=O)c3C)c2C)cc(F)c1CNC(C)(C)CO [Example 1.133]
41 | < 10 | COc1cc(-c2cccc(-c3cccc(NC(=O)c4c[nH]c(=O)n(C)c4=O)c3C)c2C)cc(F)c1CNCc1ccn[nH]1 [Example 1.134]
42 | < 10 | COc1cc(-c2cccc(-c3cccc(NC(=O)c4cn(C)c(=O)n(C)c4=O)c3C)c2C)cc(F)c1CN[C@@H]1CCC[C@H]1O [Example 1.137]
43 | < 10 | COc1cc(-c2cccc(-c3cccc(NC(=O)c4cncn(C)c4=O)c3C)c2C)cc(F)c1CNC1CCOC1 (stereo not drawn) [Example 1.139]
44 | < 10 | COc1cc(-c2cccc(-c3cccc(NC(=O)c4cncn(C)c4=O)c3C)c2C)cc(F)c1CNCC1(O)CC1 [Example 1.140]
45 | < 10 | COc1cc(-c2cccc(-c3cccc(NC(=O)c4c[nH]c(=O)n(C)c4=O)c3C)c2C)cc(F)c1CNCCC1CCC(=O)N1 (stereo not drawn) [Example 1.141]
46 | < 10 | COc1cc(-c2cccc(-c3cccc(NC(=O)c4cccn(C)c4=O)c3C)c2C)cc(F)c1CN[C@H]1CNC(=O)C1 [Example 1.142]
47 | < 10 | COc1cc(-c2cccc(-c3cccc(NC(=O)c4c[nH]c(=O)n(C)c4=O)c3C)c2C)cc(F)c1CN[C@H]1CNC(=O)C1 [Example 1.143]
48 | < 10 | COc1cc(-c2cccc(-c3cccc(Nc4nccc5nccnc45)c3C)c2C)cc(F)c1CN[C@H]1CCC[C@@H]1O [Example 1.144]
49 | < 10 | COc1cc(-c2cccc(-c3cccc(NC(=O)c4cccn(C)c4=O)c3C)c2C)cc(F)c1CNC[C@H]1CCC(=O)N1 [Example 1.145]
50 | < 10 | COc1cc(-c2cccc(-c3cccc(NC(=O)c4cn(C)c(=O)n(C)c4=O)c3C)c2C)cc(F)c1CNCc1cn(C)c(=O)n(C)c1=O [Example 1.146]
51 | < 10 | COc1cc(-c2cccc(-c3cccc(NC(=O)c4cn(C)c(=O)n(C)c4=O)c3C)c2C)cc(F)c1CN[C@H]1CCC[C@H]1O [Example 1.147]
52 | < 10 | COc1cc(-c2cccc(-c3cccc(NC(=O)c4cn(C)c(=O)n(C)c4=O)c3C)c2C)cc(F)c1CN(C)[C@@H]1CNC(=O)C1 [Example 1.148]
53 | < 10 | COc1cc(-c2cccc(-c3cccc(NC(=O)c4cn(C)c(=O)n(C)c4=O)c3C)c2C)cc(F)c1CNCc1c[nH]c(=O)[nH]c1=O [Example 1.149]
54 | < 10 | COc1cc(-c2cccc(-c3cccc(NC(=O)c4cccn(C)c4=O)c3C)c2C)cc(F)c1CNC(C)(C)CO [Example 1.150]
55 | < 10 | COc1cc(-c2cccc(-c3cccc(NC(=O)c4cncn(C)c4=O)c3C)c2C)cc(F)c1CNC(C)(C)CO [Example 1.151]
56 | < 10 | COc1cc(-c2cccc(-c3cccc(Nc4nccc5nccnc45)c3C)c2C)cc(F)c1CN[C@H]1CNC(=O)C1 [Example 1.153]
57 | < 10 | COc1cc(-c2cccc(-c3cccc(NC(=O)c4cncn(C)c4=O)c3C)c2C)cc(F)c1CN[C@H]1CNC(=O)C1 [Example 1.154]
